Literature values in US20210369601A1, “Pharmaceutical Formulation” (Klaria Pharma Holding AB, priority 2018, published 2021).

Details: aqueous solution

Compound: CNCC(O)c1ccc(O)c(O)c1 (centres unmarked) [adrenaline]
- pH of acceptable stability: < 5.5
- pH of optimal stability: 3-4
